Results: patent publication US20120035206A1, “PREPARATION AND APPLICATION OF NOVEL ANTIBACTERIAL AND ANTICANCER COMPOUNDS AND THEIR DERIVATIVES” (priority 2009, published 2012)
Values after ≈ are worked out from the molar mass of the structure shown.

Columns and labels:
Type in all cases: cell-based
[1] = system: Setosphaeria turcica; test: In vitro antibacterial (antifungal) test, two-fold dilution MIC; settings: Exserohilum turcicum, RPMI 1640, culture 2-7 days
[2] = system: Fusarium oxysporum vasinfectum; test: as above; settings: RPMI 1640, culture 2-7 days
[3] = system: C. glabrata; test: as above; settings: Nakaseomyces glabratus, RPMI 1640, culture 2-7 days
[4] = system: gibberella; test: as above; settings: RPMI 1640, culture 2-7 days
[5] = system: C. parapsilosis; test: as above; settings: Lodderomyces parapsilosis, RPMI 1640, culture 2-7 days
[6] = system: C. Krusei; test: as above; settings: Pichia kudriavzevii, RPMI 1640, culture 2-7 days
[7] = system: S. schenekn; test: as above; settings: RPMI 1640, culture 2-7 days
[8] = system: Terchoderma; test: as above; settings: Trichoderma, RPMI 1640, culture 2-7 days
[9] = system: M. gypseum; test: as above; settings: Nannizzia gypsea, RPMI 1640, culture 2-7 days
[10] = system: C. albicans; test: as above; settings: Candida albicans, read-out: MIC C. albicas
[11] = system: C. tropicalis; test: as above; settings: Candida tropicalis, RPMI 1640, culture 2-7 days
[12] = system: C. neoformans; test: as above; settings: Cryptococcus neoformans, RPMI 1640, culture 2-7 days
[13] = system: L1210; test: In vitro anticancer MTT experiment; settings: Mus musculus, concentration 5 ug/ml, 48 h or 72 h, read-out: inhibition ratio L1210
Outline: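 Cells in RPMI 1640 with 10% fetal calf serum were seeded at 6000-7000 per well, rested 12 h at 37° C., then exposed to compound for 48 h or 72 h. MTT was read as OD at 570 nm. Inhibition ratio was derived against untreated and blank wells, with reported values taken at 5 ug/ml.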

[14] = system: AS24391; test: In vitro anticancer MTT experiment; settings: concentration 5 ug/ml, 48 h or 72 h, read-out: inhibition ratio AS24391
Outline: (§1)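 Human cancer cell lines in RPMI 1640 with 10% fetal calf serum and 0.01% L-glutamine were seeded at 6000-7000 cells per well, settled 12 h, then exposed to compound for 48 h or 72 h at 37° C., 5% CO2. Values are percent inhibition at 5 ug/ml by MTT, A570.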

[15] = system: FTC 133; test: In vitro anticancer MTT experiment; settings: Homo sapiens, concentration 5 ug/ml, 48 h or 72 h, read-out: inhibition ratio FTC 133
Outline: as §1

[16] = system: A375; test: In vitro anticancer MTT experiment; settings: Homo sapiens, A-375, concentration 5 ug/ml, 48 h or 72 h, read-out: inhibition ratio A375
Outline: as §1

[17] = system: CRL-2233SNU-398; test: In vitro anticancer MTT experiment; settings: concentration 5 ug/ml, 48 h or 72 h, read-out: inhibition ratio CRL-2233SNU-398
Outline: as §1

[18] = system: HTB-95637; test: In vitro anticancer MTT experiment; settings: concentration 5 ug/ml, 48 h or 72 h, read-out: inhibition ratio HTB-95637
Outline: as §1

[19] = system: SGC7901; test: In vitro anticancer MTT experiment; settings: Homo sapiens, SGC-7901, concentration 5 ug/ml, 48 h or 72 h, read-out: inhibition ratio SGC7901
Outline: as §1

[20] = system: CRL-1435PC-3; test: In vitro anticancer MTT experiment; settings: concentration 5 ug/ml, 48 h or 72 h, read-out: inhibition ratio CRL-1435PC-3
Outline: as §1

[21] = system: L428; test: In vitro anticancer MTT experiment; settings: Homo sapiens, L-428, concentration 5 ug/ml, 48 h or 72 h, read-out: inhibition ratio L428
Outline: as §1

[22] = system: B01092; test: In vitro anticancer MTT experiment; settings: concentration 5 ug/ml, 48 h or 72 h, read-out: inhibition ratio B01092
Outline: as §1

[23] = system: CRL-1469PANC-1; test: In vitro anticancer MTT experiment; settings: concentration 5 ug/ml, 48 h or 72 h, read-out: inhibition ratio CRL-1469PANC-1
Outline: as §1

[24] = system: E. floccosum; test: In vitro antibacterial (antifungal) test, two-fold dilution MIC; settings: Epidermophyton floccosum, RPMI 1640, culture 2-7 days
[25] = system: HTB-38HT-29; test: In vitro anticancer MTT experiment; settings: concentration 5 ug/ml, 48 h or 72 h, read-out: inhibition ratio HTB-38HT-29
Outline: as §1

[26] = system: HTB-131MDA-MB-453; test: In vitro anticancer MTT experiment; settings: concentration 5 ug/ml, 48 h or 72 h, read-out: inhibition ratio HTB-131MDA-MB-453
Outline: as §1

[27] = system: HTB-94; test: In vitro anticancer MTT experiment; settings: concentration 5 ug/ml, 48 h or 72 h, read-out: inhibition ratio HTB-94
Outline: as §1

Row | SMILES | MIC [1] | MIC [3] | MIC [4] | MIC [5] | MIC [6] | MIC [7] | MIC [9] | MIC [10] | MIC [11] | MIC [12] | inhibition at 5 µg/mL [13] | inhibition at 5 µg/mL [14] | inhibition at 5 µg/mL [15] | inhibition at 5 µg/mL [16] | inhibition at 5 µg/mL [17] | inhibition at 5 µg/mL [19] | inhibition at 5 µg/mL [20] | inhibition at 5 µg/mL [21] | inhibition at 5 µg/mL [22] | inhibition at 5 µg/mL [23] | other results
1 | Cc1ccc2c(c1)C(=O)/C(=C/Cl)CS2 [Compound 5, (Z)-3-(chloromethylene)-6-methylthiochroman-4-one] | 8 µg/mL (≈ 35.6 µM) | 2 µg/mL (≈ 8.9 µM) | 16 µg/mL (≈ 71.2 µM) | 8 µg/mL (≈ 35.6 µM) | 4 µg/mL (≈ 17.8 µM) | 8 µg/mL (≈ 35.6 µM) | 4 µg/mL (≈ 17.8 µM) | 8 µg/mL (≈ 35.6 µM) | 32 µg/mL (≈ 142 µM) | 0.5 µg/mL (≈ 2.23 µM) | 87.6% | 49.8% | 60.2% | 65.9% | 60.1% | 62.1% | 55.6% | 46.8% | 58% | 40.9% | MIC [2]: 8 µg/mL (≈ 35.6 µM); MIC [8]: 32 µg/mL (≈ 142 µM); inhibition at 5 µg/mL [18]: 76.6%
2 | O=C1/C(=C/Cl)SCc2ccc(F)cc21 [Compound 15, (Z)-3-(chloromethylene)-6-fluoroisothiochroman-4-one] | 16 µg/mL (≈ 70 µM) | 4 µg/mL (≈ 17.5 µM) | 16 µg/mL (≈ 70 µM) | 16 µg/mL (≈ 70 µM) | 32 µg/mL (≈ 140 µM) | 32 µg/mL (≈ 140 µM) | 4 µg/mL (≈ 17.5 µM) | 8 µg/mL (≈ 35 µM) | 4 µg/mL (≈ 17.5 µM) | 32 µg/mL (≈ 140 µM) | 80.9% | 46.8% | 45.9% | 60.2% | 45% | 47.6% |  | 55.4% | 49.5% | 36.8% | MIC [2]: 8 µg/mL (≈ 35 µM); MIC [24]: 8 µg/mL (≈ 35 µM); MIC [8]: 32 µg/mL (≈ 140 µM); inhibition at 5 µg/mL [25]: 57%; inhibition at 5 µg/mL [26]: 58%; inhibition at 5 µg/mL [27]: 60.5%
3 | Cc1cc2c(cc1F)CS/C(=C\Br)C2=O [Compound 16, (Z)-3-(bromomethylene)-7-fluoro-6-methylisothiochroman-4-one] | 32 µg/mL (≈ 111 µM) | 4 µg/mL (≈ 13.9 µM) | 32 µg/mL (≈ 111 µM) | 4 µg/mL (≈ 13.9 µM) | 32 µg/mL (≈ 111 µM) | 8 µg/mL (≈ 27.9 µM) | 16 µg/mL (≈ 55.7 µM) | 32 µg/mL (≈ 111 µM) | 32 µg/mL (≈ 111 µM) | 4 µg/mL (≈ 13.9 µM) | 85.9% | 57.8% | 46.5% | 30.5% |  | 56.7% | 56.9% | 43.1% | 60.4% | 57.9% | MIC [2]: 16 µg/mL (≈ 55.7 µM); MIC [24]: 16 µg/mL (≈ 55.7 µM); MIC [8]: 16 µg/mL (≈ 55.7 µM); inhibition at 5 µg/mL [18]: 36%; inhibition at 5 µg/mL [25]: 48%; inhibition at 5 µg/mL [26]: 46.3%; inhibition at 5 µg/mL [27]: 63.2%
4 | OC1/C(=C/Cl)SCc2ccccc21 (stereo not shown) [Compound 20, (Z)-3-(chloromethylene)isothiochroman-4-ol] | 8 µg/mL (≈ 37.6 µM) | 8 µg/mL (≈ 37.6 µM) | 16 µg/mL (≈ 75.2 µM) | 8 µg/mL (≈ 37.6 µM) | 32 µg/mL (≈ 150 µM) | 32 µg/mL (≈ 150 µM) | 16 µg/mL (≈ 75.2 µM) | 16 µg/mL (≈ 75.2 µM) | 32 µg/mL (≈ 150 µM) | 16 µg/mL (≈ 75.2 µM) | 80.3% | 49.8% | 36.9% | 50.2% | 40.4% | 45.9% | 45.5% | 43.3% | 46.9% | 34.5% | MIC [24]: 16 µg/mL (≈ 75.2 µM); inhibition at 5 µg/mL [18]: 56.2%; inhibition at 5 µg/mL [25]: 45.5%; inhibition at 5 µg/mL [26]: 25.8%; inhibition at 5 µg/mL [27]: 45.7%
5 | Cc1ccc(S/C=C2/CSc3ccc(F)cc3C2=O)cc1F [Compound 23, (E)-6-fluoro-3-(((3-fluoro-4-methylphenyl)thio)methylene)thiochroman-4-one] |  | 64 µg/mL (≈ 191 µM) | 16 µg/mL (≈ 47.8 µM) |  |  | 64 µg/mL (≈ 191 µM) |  |  |  | 16 µg/mL (≈ 47.8 µM) | 37.6% | 44.5% | 42.4% | 49.2% | 53.3% |  | 43.9% | 59.5% | 39% | 34.2% | MIC [24]: 64 µg/mL (≈ 191 µM); inhibition at 5 µg/mL [18]: 50.6%; inhibition at 5 µg/mL [25]: 56.1%; inhibition at 5 µg/mL [26]: 53.5%; inhibition at 5 µg/mL [27]: 47.9%
6 | O=C1/C(=C\Cl)CSc2sccc21 [Compound 24, (E)-5-(chloromethylene)-5,6-dihydro-4H-thieno[2,3-b]thiopyran-4-one] | 16 µg/mL (≈ 73.8 µM) | 16 µg/mL (≈ 73.8 µM) | 4 µg/mL (≈ 18.5 µM) | 4 µg/mL (≈ 18.5 µM) | 32 µg/mL (≈ 148 µM) | 32 µg/mL (≈ 148 µM) | 8 µg/mL (≈ 36.9 µM) | 16 µg/mL (≈ 73.8 µM) | 8 µg/mL (≈ 36.9 µM) | 16 µg/mL (≈ 73.8 µM) | 85.4% | 37% | 45.8% | 32.5% | 45.6% | 33.9% | 39.4% | 47.7% | 56.8% |  | MIC [2]: 16 µg/mL (≈ 73.8 µM); MIC [24]: 16 µg/mL (≈ 73.8 µM); MIC [8]: 16 µg/mL (≈ 73.8 µM); inhibition at 5 µg/mL [25]: 43.4%; inhibition at 5 µg/mL [26]: 47.6%; inhibition at 5 µg/mL [27]: 51.3%
